Structures can show the parent of a compound that is named as a salt. Where two headings read alike, the source gives them in different places.
Legend:
[1] = tested on: KB cell; experiment: Cancer cell growth inhibitory activity (KB cells, MTT colorimetric determination); format: cell-based, human
Procedure: In order to evaluate tyrosine kinase inhibitory activity and cancer cell growth inhibitory activity for tyrosine kinase inhibitor of the invention, tests were carried out in partially purified human EGF (epidermal growth factor) receptor tyrosine kinase activity detemination system and in a cell incubation system using human cancer cells. Furthermore, in order to compare and evaluate strength of inhibitory activity, relatively higher active ones amongst known tyrosine kinase inhibitors disclosed in patents or literatures were tested simultaneously.
Accordingly, the KB cell was used to evaluate the effect of test compounds on the growth of cultured cancer cells.
KB cells were plated on a 96-well dish (2.5x 10^3 cell/well) and cultured for 24 hours at 37 ° C under 5% C02 atmosphere in DMEM:F12 (1:1) medium containing 10% FCS, 50 µg/ml penicillin, and 50µg/ml streptomycin. To the culture medium was added a test compound dissolved in DMSO (DMSO final concentration < 0.1%), and the cells were cultured for three days under the same conditions. The test compound was exchanged every 24 hours together with the culture medium.
The amount of living cells were measured by calorimetric determination at wave lengths of 550 nm and 650 nm after developing colour by MTT (3-[4,5-Dimethylthiazol-2-yl]-2,5-diphenyltetrazolium bromide), in accordance with the method of Michael C. Alley et al. (Cancer Research 48 589, 1988).
Cancer cell growth inhibitory activity (CCGIA) was determined according to the following equation. [formula] Symbols "a" and "b" represent the colorimetric values determined in the cancer cell growth assay with and without the test compounds, respectively.

[2] = molecular target: T1, partially purified human EGF (epidermal growth factor) receptor tyrosine kinase (Homo sapiens, UniProt P00533); experiment: biochemical
T1 construct: The cell membrane fraction, a partially purified EGF receptor, was used as an enzyme source; endogenous in cells; host or cells: A431 human epidermoid carcinoma cells (membrane fraction, 10000xg pellet)

[3] = Homo sapiens, 72 h; Table-3; KB cells, three days culture, MTT; 3) fumarate, 4) hydrochloride
[4] = Table-2; […]; 3) fumarate, 4) hydrochloride, read-out: Tyrosine kinase inhibitory activity (IC50)
[5] = Table-2 continued; […]; 4) hydrochloride, read-out: Tyrosine kinase inhibitory activity (IC50, μ)

T1 sequence (P01133 971-1023): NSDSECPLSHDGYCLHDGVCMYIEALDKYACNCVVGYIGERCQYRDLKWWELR
T1 sequence (P00533 25-1210): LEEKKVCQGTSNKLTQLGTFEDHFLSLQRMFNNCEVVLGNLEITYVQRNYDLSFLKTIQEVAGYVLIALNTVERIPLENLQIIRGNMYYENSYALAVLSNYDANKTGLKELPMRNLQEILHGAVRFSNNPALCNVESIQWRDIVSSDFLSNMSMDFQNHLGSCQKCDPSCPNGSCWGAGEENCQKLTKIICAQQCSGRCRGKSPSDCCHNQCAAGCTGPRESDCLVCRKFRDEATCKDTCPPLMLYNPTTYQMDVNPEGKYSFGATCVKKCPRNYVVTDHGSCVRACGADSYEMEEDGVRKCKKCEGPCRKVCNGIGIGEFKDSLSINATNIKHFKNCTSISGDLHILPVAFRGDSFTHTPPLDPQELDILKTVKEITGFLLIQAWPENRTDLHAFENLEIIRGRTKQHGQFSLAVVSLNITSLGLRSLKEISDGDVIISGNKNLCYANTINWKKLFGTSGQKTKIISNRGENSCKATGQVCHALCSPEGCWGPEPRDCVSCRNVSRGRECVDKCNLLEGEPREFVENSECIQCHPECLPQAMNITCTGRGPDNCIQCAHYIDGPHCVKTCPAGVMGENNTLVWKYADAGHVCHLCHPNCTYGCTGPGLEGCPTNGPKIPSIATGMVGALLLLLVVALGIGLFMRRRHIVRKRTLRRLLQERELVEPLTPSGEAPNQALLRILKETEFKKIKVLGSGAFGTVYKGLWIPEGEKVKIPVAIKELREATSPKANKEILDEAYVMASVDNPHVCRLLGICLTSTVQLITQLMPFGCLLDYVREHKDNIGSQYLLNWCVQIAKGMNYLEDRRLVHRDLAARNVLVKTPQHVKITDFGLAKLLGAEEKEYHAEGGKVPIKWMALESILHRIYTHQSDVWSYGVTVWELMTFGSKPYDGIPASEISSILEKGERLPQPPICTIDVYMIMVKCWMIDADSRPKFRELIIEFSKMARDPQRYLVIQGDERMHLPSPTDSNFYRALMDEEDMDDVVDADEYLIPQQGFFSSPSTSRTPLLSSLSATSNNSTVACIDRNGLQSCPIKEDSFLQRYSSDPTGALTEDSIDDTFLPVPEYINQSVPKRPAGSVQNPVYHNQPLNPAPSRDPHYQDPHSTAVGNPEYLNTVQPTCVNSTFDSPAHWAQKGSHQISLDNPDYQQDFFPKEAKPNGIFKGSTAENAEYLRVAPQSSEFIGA

SMILES | IC50 [1, 3] [nM] | IC50 [2, 4] [nM] | IC50 [2, 5] [nM] | IC50 ([1]; Table-3; KB cells, three days culture, MTT; 3) fumarate, 4) hydrochloride) [nM]
COc1cc(C(=O)C#CC(C)(C)N2CCCCC2)cc2c1OCO2 [compound 500] | 480 | 350 | – | –
COc1ccc(C(=O)C#CCNC(=O)OC(C)(C)C)cc1OC [compound 388] | 1100 | – | 69 | –
COc1ccc(C(=O)C#CC(C)(NCCCO)C(C)C)cc1OC (centres unmarked) [compound 654] | 1000 | – | 940 | –
CC(C)(C)c1cc(C(=O)C#CC(C)(C)N2CCCCC2)cc(C(C)(C)C)c1O [compound 667] | 120 | – | – | –
CN(C)c1ccc(C(=O)C#CC(C)(C)N2CCCCC2)cc1 [compound 485] | 690 | – | – | –
CC(C)(C#CC(=O)c1ccc(F)cc1)N1CCCCC1 [compound 483] | 340 | – | – | –
COc1ccc(C(=O)C#CC(C)(C)N(C)C)cc1OC [compound 402] | 930 | – | 330 | –
COc1ccc(C(=O)C#Cc2ccccc2)cc1OC [compound 19] | 2650 | 670 | – | –
COc1ccc(C(=O)C#CC(C)(C)NCc2ccccc2)cc1OC [compound 647] | 790 | – | 190 | –
N#CC(=Cc1ccc(O)c(O)c1)C(=O)Nc1ccccc1 [[drawing] 1)] | 17000 | – | – | –
CCN(CC)C(C)(C)C#CC(=O)c1ccc(OC)c(OC)c1 [compound 410] | 690 | 730 | – | –
CC(C)(C#CC(=O)c1cc2c(cc1[N+](=O)[O-])OCO2)N1CCCCC1 [compound 501] | 1480 | – | – | –
COc1ccc(C(=O)C#CCN(C(C)C)C(C)C)cc1OC [compound 242] | 2100 | 35 | – | –
CCN(CC)CC#CC(=O)c1ccc(OC)c(OC)c1 [compound 222] | 840 | – | 13 | –
COc1ccc(C(=O)C#CC(C)(C)Nc2c(C)cccc2C)cc1OC [compound 645] | 3400 | – | 2200 | –
COc1ccc(C(=O)C#CC(C)(C)NC(=O)OCc2ccc[n+]([O-])c2)cc1OC [compound 651] | 3500 | 660 | – | –
C#CC(=O)c1ccc(OC)c(OC)c1 [compound 2] | 13000 | – | – | –
COc1ccc(OC)c(C(=O)C#CC(C)(C)N2CCCCC2)c1 [compound 665] | 270 | – | 1400 | –
COc1ccc(C(=O)C#CC(O)(C(C)C)C(C)C)cc1OC [compound 627] | 680 | – | – | –
COc1ccc(C(=O)C#CC(C)(C)Nc2ccccc2)cc1OC [compound 643] | 1100 | – | 120 | –
COc1ccc(C(=O)C#CC(C)(C)N2CCCCC2)cc1OC [compound 477] | 640 | 1300 | – | –
CCN(CC)C1(C#CC(=O)c2ccc(OC)c(OC)c2)CCCCC1 [compound 555] | 460 | 1700 | – | –
COc1ccc(C(=O)C#CC(C)(C)C)cc1OC [compound 8] | 2200 | – | – | –
COc1ccc(C(=O)C#CCN2C(C)(C)CCCC2(C)C)cc1OC [compound 313] | 1000 | 180 | – | –

SMILES | IC50 [1, 3] [nM] | IC50 [2, 4] [nM] | IC50 [2, 5] [nM] | IC50 ([1]; Table-3; KB cells, three days culture, MTT; 3) fumarate, 4) hydrochloride) [nM]
COc1ccc(C(=O)C#CC(C)(C)N2CCCCC2)cc1 [compound 476] | 550 | – | – | –
COc1ccc(C(=O)C#CC(C)(C)NS(=O)(=O)c2ccc(OC)c(OC)c2)cc1OC [compound 652] | 1300 | – | – | –
COc1ccc(C(=O)C#CC(C)(C)O)cc1OC [compound 613] | 1410 | 150 | – | –
COc1ccc(C(=O)C#CC(C)(C)Nc2cccc(Cl)c2)cc1OC [compound 642] | 1500 | – | 96 | –
COc1ccc(C(=O)C#C[Si](C)(C)C)cc1OC [compound 633] | 14500 | – | – | –
CCN(CC)C(C)(C#CC(=O)c1ccc(OC)c(OC)c1)C(C)C (centres unmarked) [compound 455] | 560 | 2900 | – | –
COc1ccc(C(=O)C#CC(C)(C(C)C)N(C)CCCO)cc1OC (centres unmarked) [compound 655] | 2100 | – | – | –
COc1ccc(C(=O)C#CC(C)(C)NCCc2c[nH]c3ccccc23)cc1OC [compound 648] | 1600 | – | 37 | –
CC(C)(C#CC(=O)c1ccc(Cl)c(Cl)c1)N1CCCCC1 [compound 480] | 510 | – | – | –
COc1ccc(C(=O)C#CC(C)(C)NC(=O)OCc2cccnc2)cc1OC [compound 649] | 1100 | 960 | – | –
COc1ccc(C(=O)C#CC(C)(C)NCC(C)C)cc1OC [compound 644] | 2800 | – | 66 | –
COc1ccc(C(=O)C#CC(=O)Nc2ccccc2)cc1OC [compound 197] | – | 1000 | – | –
COc1ccc(C(=O)C#CC(C)(C)N)cc1OC [compound 395, 4-amino-1-(3,4-dimethoxy)phenyl-1-oxo-4-methyl-2-pentyne hydrochloride] | – | 39 | – | –
CC(C)(C#CC(=O)c1ccc2c(c1)OCO2)N1CCCCC1 [compound 482] | 300 | – | – | –
COc1cccc(C(=O)C#CC(C)(C)N2CCCCC2)c1OC [compound 664] | 680 | – | 930 | –
COc1ccc(C(=O)C#CCN2CCCCC2)cc1OC [compound 287] | 1600 | 470 | – | –
COc1ccc(C(=O)C#CC(C)(C)NC(=O)OCc2ccccc2)cc1OC [compound 619] | 1100 | 660 | – | –
COc1ccc(C(=O)C#CC(C)(C)Nc2cccnc2)cc1OC [compound 646] | 2800 | – | 300 | –
CSc1ccc(C(=O)C#CC(C)(C)N2CCCCC2)cc1 [compound 484] | 410 | 1300 | – | –
CC(C)(C#CC(=O)c1ccc(S(C)(=O)=O)cc1)N1CCCCC1 [compound 666] | 2200 | – | 2600 | –
COc1ccc(C(=O)C#Cc2ccccn2)cc1OC [compound 69] | 1520 | 240 | – | –
CCOc1cc(C=C(C#N)C(N)=O)cc(CSc2ccccc2)c1O [[drawing] 2)] | 52000 | 3200 | – | –
COc1ccc(C(=O)C#CC(C)(C)NC(=O)OCc2ccc[n+](C)c2)cc1OC [compound 650] | – | – | – | 6500

Source: patent EP0645379A2, “Benzoylacetylene derivatives” (priority 1993, dated 1995)
